Data as given in patent publication US7005437B2, “Substituted aryl and heteroaryl derivatives, the preparation thereof and the use therof as pharmaceutical compositions” (Boehringer Ingelheim Pharma KG, priority 2001, dated 2006).
pIC50: −log10 of the molar value. Structures can show the parent of a compound that is named as a salt.

Molecular target: T1, human factor Xa (Homo sapiens, UniProt P00742)
T1 construct: released from the colourless chromogenic substrate by human factor Xa; purchased Roche
Assay: Factor Xa inhibition, enzyme-kinetic measurement with chromogenic substrate
Type: biochemical
Settings: chromogenic substrate Chromozym X, pNA release at 405 nm, pH 8.0, 37° C.
Description: The compounds of Examples 1 to 45 of the present application were investigated for their effect on the inhibition of factor Xa as follows: Method: Enzyme-kinetic measurement with chromogenic substrate. The quantity of p-nitroaniline (pNA) released from the colourless chromogenic substrate by human factor Xa is determined photometrically at 405 nm. It is proportional to the activity of the enzyme used. The inhibition of the enzyme activity by the test substance (in relation to the solvent control) is determined at various concentrations of test substance and from this the IC50 is calculated, as the concentration which inhibits the factor Xa used by 50%.
Tris(hydroxymethyl)-aminomethane buffer (100 mMol) of and sodium chloride (150 mMol), pH 8.0
Factor Xa (Roche), spec. activity: 10 U/0.5 ml, final concentration: 0.175 U/ml for each reaction mixture
Substrate Chromozym X (Roche), final concentration: 200 μMol/l for each reaction mixture
10 μl of a 23.5-times concentrated starting solution of the test substance or solvent (control), 175 μl of tris(hydroxymethyl)-aminomethane buffer and 25 μl of a 1.65 U/ml Factor Xa working solution are incubated for 10 minutes at 37° C. After the addition of 25 μl of Chromozym X working solution ([…]) the sample is measured in a photometer (SpectraMax 250) at 405 nm for 150 seconds at 37° C.
1. […]

T1 sequence (P00742 235-488 limits assumed): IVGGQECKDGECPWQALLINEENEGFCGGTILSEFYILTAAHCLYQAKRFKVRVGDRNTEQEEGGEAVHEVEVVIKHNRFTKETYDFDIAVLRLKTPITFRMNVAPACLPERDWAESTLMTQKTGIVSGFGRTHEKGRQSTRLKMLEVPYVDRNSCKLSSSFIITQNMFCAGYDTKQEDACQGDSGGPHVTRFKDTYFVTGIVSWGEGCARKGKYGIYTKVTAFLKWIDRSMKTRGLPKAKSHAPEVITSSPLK
T1 sequence (P00742 41-179 partner limits assumed): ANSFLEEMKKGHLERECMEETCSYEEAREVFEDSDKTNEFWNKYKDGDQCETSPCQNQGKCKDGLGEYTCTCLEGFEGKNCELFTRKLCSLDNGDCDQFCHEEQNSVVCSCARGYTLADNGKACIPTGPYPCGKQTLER

pIC50: 8.40
SMILES: Cc1cc(C#CCN(Cc2ccccc2)c2cccc(C(=N)N)c2)ccc1C(=O)N1CC=CC1 [Example 37, 3-{N-benzyl-3-[3-methyl-4-(2,5-dihydropyrrol-1-yl-carbonyl)-phenyl]-propargylamino}-benzamidine-hydrochloride]
